According to patent US10131932B2, “Method for assaying a protease” (McMaster University, priority 2013, dated 2018):

B1: alpha-2-macroglobulin: thrombin-binding plasma inhibitor protein (protein, UniProt P01023 24-1474, looked up)
Alpha-2-macroglobulin: SVSGKPQYMVLVPSLLHTETTEKGCVLLSYLNETVTVSASLESVRGNRSLFTDLEAENDVLHCVAFAVPKSSSNEEVMFLTVQVKGPTQEFKKRTTVMVKNEDSLVFVQTDKSIYKPGQTVKFRVVSMDENFHPLNELIPLVYIQDPKGNRIAQWQSFQLEGGLKQFSFPLSSEPFQGSYKVVVQKKSGGRTEHPFTVEEFVLPKFEVQVTVPKIITILEEEMNVSVCGLYTYGKPVPGHVTVSICRKYSDASDCHGEDSQAFCEKFSGQLNSHGCFYQQVKTKVFQLKRKEYEMKLHTEAQIQEEGTVVELTGRQSSEITRTITKLSFVKVDSHFRQGIPFFGQVRLVDGKGVPIPNKVIFIRGNEANYYSNATTDEHGLVQFSINTTNVMGTSLTVRVNYKDRSPCYGYQWVSEEHEEAHHTAYLVFSPSKSFVHLEPMSHELPCGHTQTVQAHYILNGGTLLGLKKLSFYYLIMAKGGIVRTGTHGLLVKQEDMKGHFSISIPVKSDIAPVARLLIYAVLPTGDVIGDSAKYDVENCLANKVDLSFSPSQSLPASHAHLRVTAAPQSVCALRAVDQSVLLMKPDAELSASSVYNLLPEKDLTGFPGPLNDQDNEDCINRHNVYINGITYTPVSSTNEKDMYSFLEDMGLKAFTNSKIRKPKMCPQLQQYEMHGPEGLRVGFYESDVMGRGHARLVHVEEPHTETVRKYFPETWIWDLVVVNSAGVAEVGVTVPDTITEWKAGAFCLSEDAGLGISSTASLRAFQPFFVELTMPYSVIRGEAFTLKATVLNYLPKCIRVSVQLEASPAFLAVPVEKEQAPHCICANGRQTVSWAVTPKSLGNVNFTVSAEALESQELCGTEVPSVPEHGRKDTVIKPLLVEPEGLEKETTFNSLLCPSGGEVSEELSLKLPPNVVEESARASVSVLGDILGSAMQNTQNLLQMPYGCGEQNMVLFAPNIYVLDYLNETQQLTPEIKSKAIGYLNTGYQRQLNYKHYDGSYSTFGERYGRNQGNTWLTAFVLKTFAQARAYIFIDEAHITQALIWLSQRQKDNGCFRSSGSLLNNAIKGGVEDEVTLSAYITIALLEIPLTVTHPVVRNALFCLESAWKTAQEGDHGSHVYTKALLAYAFALAGNQDKRKEVLKSLNEEAVKKDNSVHWERPQKPKAPVGHFYEPQAPSAEVEMTSYVLLAYLTAQPAPTSEDLTSATNIVKWITKQQNAQGGFSSTQDTVVALHALSKYGAATFTRTGKAAQVTIQSSGTFSSKFQVDNNNRLLLQQVSLPELPGEYSMKVTGEGCVYLQTSLKYNILPEKEEFPFALGVQTLPQTCDEPKAHTSFQISLSVSYTGSRSASNMAIVDVKMVSGFIPLKPTVKMLERSNHVSRTEVSSNHVLIYLDKVSNQTLSLFFTVLQDVPVRDLKPAIVKVYDYYETDEFAIAEYNAPCSKDLGNA

Assays:
Thrombin [1] = assay: Thrombin activity on substrate S2238 with inhibitors; type: biochemical; conditions: 60 minutes incubation, alpha-2-macroglobulin 0.2 μM, PPAck 20 μM
Description: The effect of thrombin substrate, S2238, on thrombin activity in the presence and absence of alpha-2-macroglobulin was then determined. Following addition of thrombin (as above), thrombin incubated with alpha-2-macroglobulin for 60 minutes (as above), thrombin incubated with PPAck (as above) for 60 minutes, or thrombin incubated with alpha-2-macroglobulin (0.2 μM) and PPAck (20 μM) for 60 minutes, to S2238, thrombin activity was determined.

Thrombin [2] = assay: Thrombin activity on T13 FRET-protein substrate with inhibitors; type: biochemical; conditions: 60 minutes incubation, alpha-2-macroglobulin 0.2 μM, PPAck 20 μM
Description: The effect of the FRET-protein substrate on the thrombin activity in the absence and presence of alph-2-macroglobulin was then determined. Following addition of either thrombin (as above), thrombin incubated with alpha-2-macroglobulin for 60 minutes (as above) or thrombin incubated for 60 minutes with the thrombin inhibitor, PPAck (D-FPR-chloromethyl ketone, 20 μM), thrombin activity was determined. Thrombin was inhibited by either alpha-2-macroglobulin or PPAck, as shown by the reduction in the slope of the ratio for each (FIG. 11B).

[3] = test system: thrombin generation in whole blood; assay: Thrombin generation in unanticoagulated whole blood with FRET-protein substrate; type: biochemical, human; conditions: for area-under-the-curve of slope of the ratio curve / maximal upslope of slope of the ratio curve / peak height of slope of the ratio curve / thrombin generation: increasing amounts of anticoagulant in whole blood
Description: In this experiment, 12 μL of unanticoagulated human blood, obtained from a finger prick of a healthy human donor, was added to a plastic vessel (NUNC, Polystyrene, 384 well plate) containing the T13 FRET-protein substrate (8 μL in PIPES buffer, 4.6 μM final concentration) within 30 seconds of lancing the finger. Results were obtained on a fluorescence spectrophotometer, as above, temperature controlled to 37° C. Initially, as the mixture warms, the ratio of emission at 526 nm:581 nm decreases slightly, but then increases, initially sharply to a plateau as shown in FIG. 6.
The slope (first derivative) of the ratio was then determined using a mathematical program such as Excel or GraphPad Prism as shown in FIG. 7A. The curve of the slope of the ratio is smoothed using 20 neighbours using a mathematical program (Excel or GraphPad Prism). This is the typical appearance of a thrombin generation curve in plasma. Parameters that could be used to describe this curve include, but are not limited to, peak height, time to peak, lag time, maximal upslope, and area-under-the curve to a certain time point. FIG. 7B compares a) 12 μL blood combined with FRET-protein substrate (final conc. 4.6 μM) to final volume of 20 μL to b) 20 μL blood combined with FRET-protein substrate (final conc. 5.1 μM) to a final volume of 22.5 μL. The time-to-peak and lag-time are shortened and the peak height, maximal upslope and area-under-the-curve are increased in the latter where the blood is less dilute.
The effect of rivaroxaban on thrombin generation in the blood was determined. Unanticoagulated blood was taken from a finger prick of a healthy volunteer. The blood was added to a plastic vessel containing the FRET-protein substrate (0.62 μM) and rivaroxaban at various concentrations (to a final concentration of 5 μg/L, 25 μg/L and 50 μg/L).
The effect of apixaban on thrombin generation in the blood was also determined. Blood was added to FRET-protein substrate and various concentrations of apixaban was (to a final concentration of 25 μg/L, 100 μg/L, 400 μg/L and 1000 μg/L). Apixaban also alters the shape of the “slope of the ratio curve”.
The effect of dabigatran on thrombin generation in the blood was also determined. Blood was added to FRET-protein substrate and various concentrations of […] was (to a final concentration of 25 μg/L, 100 μg/L and 400 μg/L). Dabigatran also alters the shape of the “slope of the ratio curve”. […]

Thrombin [4] = assay: Fibrinogen clotting by thrombin, turbidity at 405 nm; type: biochemical; conditions: 0.2 μM
Description: The effect of alpha-2-macroglobulin on thrombin activity was determined. Thrombin (2 nM) and calcium (5 mM) were combined in PIPES buffer. Clotting was initiated by the addition of fibrinogen (3 μM). Clotting was measured by monitoring turbidity 405 nm using a spectrometer. The fibrinogen clotted within 10 minutes and remained clotted.

Row | Molecule | thrombin activity (slope of absorbance) (Thrombin [1]) | thrombin activity (slope of the ratio) (Thrombin [2]) | area-under-the-curve of slope of the ratio curve [3] | maximal upslope of slope of the ratio curve [3] | peak height of slope of the ratio curve [3] | thrombin generation [3] | also measured
1 | NC(N)=NCCC[C@H](NC(=O)[C@@H]1CCCN1C(=O)[C@H](N)Cc1ccccc1)C(=O)CCl [PPAck, D-FPR-chloromethyl ketone] | substantial inhibition | inhibited | – | – | – | – | –
2 | O=C(NC[C@H]1CN(c2ccc(N3CCOCC3=O)cc2)C(=O)O1)c1ccc(Cl)s1 [rivaroxaban] | – | – | decreased | decreased | decreased | decrease thrombin generation | –
3 | corn trypsin inhibitor | – | – | – | – | – | – | thrombin generation (peak of slope of ratio) ([3]; 200 μg/mL final concentration, unanticoagulated whole blood): delay and reduce
4 | COc1ccc(-n2nc(C(N)=O)c3c2C(=O)N(c2ccc(N4CCCCC4=O)cc2)CC3)cc1 [apixaban] | – | – | decreased | decreased | decreased | decreases thrombin generation | time to peak ([3]; anticoagulant in whole blood, dabigatran at higher concentrations): increase the time to peak
5 | B1 | little inhibition | inhibited | – | – | – | – | clotting of fibrinogen (Thrombin [4]; pre-incubation with thrombin (2 nM) for 35 minutes): reduced clotting; clotting of fibrinogen (Thrombin [4]; pre-incubation with thrombin (2 nM) for 60 minutes): inhibited clotting
